Experiments:
[1] = test system: Macaca rhesus model of hyperlipidemia; test: Macaca rhesus model of hyperlipidemia, hematological indicators and ELISA; format: in vivo; conditions: three months of administration
Description: Afterwards, efficacy of the medicament of the A-3 was confirmed in the Macaca rhesus model of hyperlipidemia. After three months of administration, blood samples were taken from the femoral vein for the determination of hematological indicators, and the determination of the insulin, apolipoprotein A-1 (apoA-1) and apolipoprotein B-100 (apoB-100) by ELISA.

[2] = test system: high fat fodder obese C57BL/6J mice; test: High fat fodder obese mice: levels of blood lipid and blood glucose; format: in vivo; design: HDL / GLU / TC / TG: unit not given here; conditions: for GLU / HDL / TC / TG: mean ± s, n 5
Description: 3 week-old male C57BL/6J mice were chosen as experiment animals, 15 of which were randomly selected to feed with a standard fodder, and the remains were allowed to feed with a high fat fodder, with each of the mice being marked by ear-cutting. The body weights and fodder intake of the mice were weighed every week. […] […], the effects of the medicaments on the levels of blood lipid and blood glucose, body weight, and fodder intake in the animals were observed, while a glucose tolerance test was performed to investigate the effects of the medicaments on the glucose tolerance in the animals.

[3] = test system: high fat fodder obese C57BL/6J mice; test: High fat fodder obese mice: body weight and food intake; format: in vivo
Description: (§1) 3 week-old male C57BL/6J mice were chosen as experiment animals, 15 of which were randomly selected to feed with a standard fodder, and the remains were allowed to feed with a high fat fodder, with each of the mice being marked by ear-cutting. The body weights and fodder intake of the mice were weighed every week. […] After the administration of the inventive compounds for four weeks, the effects of the medicaments on the levels of blood lipid and blood glucose, body weight, and fodder intake in the animals were observed, while a glucose tolerance test was performed to investigate the effects of the medicaments on the glucose tolerance in the animals.

[4] = test system: high fat fodder obese C57BL/6J mice; test: Oral glucose tolerance test in obese mice; format: in vivo; conditions: FIG. 2, in words
Description: The abscissa represents blood-sampling time points, 0 min, 30 min, 60 min, 120 min after orally given with glucose; the ordinate represents the corresponding blood glucose level (mmol/L).
as §1

[5] = Pharmacokinetics: plasma concentration-time curve; format: in vivo; conditions: SD rats, gastric lavage, 50, 10 and 2 mg/kg
Description: The dosing volume was 10 ml/kg, and blood samples of 0.4-0.5 ml were taken from the vena orbitalis posterior of the waken animals at different time points post-gastric lavage and centrifuged at 5000 rpm for 10 min. 200 μL of plasma sample was precisely measured, then supplemented with 200 μL acetonitrile, vortexed to evenness, left stand for 5 min, and centrifuged (14000 rpm, 5 min). The supernatant was collected and then centrifuged again (14000 rpm, 5 min). The resulting supernatant was gathered and subjected to HPLC injection. Time points for blood sampling were respectively: 0, 0.5, 1, 2, 4, 6, 8, 10, 12, 24, 36, 48 and 72 h, and the peak area for each time point was the average of those obtained from 6 rats at the same time point. Plasma concentrations were calculated and the medicament concentration-time curve was plotted.

[6] = Tissue distribution; format: in vivo, SD rats; conditions: distribution in organs, SD rats, 10 mg/kg
Description: 18 of SD rats were fasting for 16 h with free access for water, assigned them into 3 groups with 6 animals/group with a female-to-male ratio of 1:1; they were dosed with HS060098 (10 mg/kg), then the animals were sacrificed at 1, 10, and 24 h after dosing, and the heart, liver, spleen, lung, kidney in each animal were removed rapidly. The tainted blood on the surface of the organ was washed off immediately with physiological saline. The tissue from the organ was dissected apart, washed thoroughly, blotted off, weighed, supplemented with physiological saline at 400 mg/ml, homogenized in an ice bath for 1 min, and centrifuged at 3750 rpm for 20 min. 400 μl of the supernatant was pipetted precisely, followed by addition of 40 μl of an inner standard (HS060001 used as the inner standard with a molar concentration of 5 mmol/L), diluted with 3 ml of purified water, vortexed to homogeneity, and loaded onto a column (SPE C18 column was firstly washed with 3 ml of purified water, and sequentially with 3 ml of 10% methanol for activation). The column was rinsed with 3 ml of purified water at 1 ml/min, and then eluted with 3 ml of a elutant (methanol: purified water=9:1). The eluate was collected and blow-dried under a nitrogen flow at 45° C. The residue was dissolved in 400 μl of acetonitrile and then a HPLC insert was placed and followed by injection of the sample.

[7] = vs hyperlipidemia model control group
[8] = 2 weeks administration, 3.3 mg/kg
[9] = 2 weeks administration, 10 mg/kg
[10] = 4 weeks administration, 3.3 mg/kg
[11] = 4 weeks administration, 10 mg/kg

## 2-(3-methyl-4-(1-(3-(4-methyl-5-oxo-1-(4-trifluoromethyl-phenyl)-4,5-dihydrogen-1H-1,2,4-triazolyl))-benzyloxy)-phenylthio)-acetic acid [Compound A-3]
[1]; ELISA, in words
  concentration of apoA-1: significantly increased
  concentration of apoB-100: significantly decreased
  insulin concentration: significantly decreased
[1]; [7]
  high density lipoprotein (HDLc) increased: 67%
  low density lipoprotein (LDLc) decreased: 38%
  serum total cholesterol (TC) decreased: 45%
[2]; [8]
  GLU: 9.52 ± 1.71
  HDL: 3.31 ± 0.21
  TC: 3.25 ± 2.76
  TG: 0.19 ± 0.12
[2]; [9]
  GLU: 6.54 ± 1.04
  HDL: 2.94 ± 1.42
  TC: 5.12 ± 0.65
  TG: 0.18 ± 0.02
[2]; [10]
  GLU: 9.54 ± 0.71
  HDL: 3.1 ± 0.59
  TC: 5.11 ± 0.31
  TG: 0.07 ± 0.01
[2]; [11]
  GLU: 6.6 ± 1.15
  HDL: 2.89 ± 0.28
  TC: 4.75 ± 0.57
  TG: 0.11 ± 0.07
[2]; in words
  levels of TG and GLU in the sera from the model animals: significantly decrease
[3]; column 1, 3.3 mg/kg
  Food intake: 5.22 g
[3]; column 1, 10 mg/kg
  Food intake: 5.46 g
[3]; column 2, 3.3 mg/kg
  Food intake: 5.04 g
[3]; column 2, 10 mg/kg
  Food intake: 4.84 g
[3]; column 3, 3.3 mg/kg
  Food intake: 6.06 g
[3]; column 3, 10 mg/kg
  Food intake: 4.94 g
[3]; column 4, 3.3 mg/kg
  Food intake: 5.1 g
[3]; column 4, 10 mg/kg
  Food intake: 5.28 g
[3]; column 5, 3.3 mg/kg
  Food intake: 6.275 g
[3]; column 5, 10 mg/kg
  Food intake: 6.9 g
[3]; in words
  effect on the food intake of the animals: no significant effect
[3]; in words, Table 4 and FIG. 1
  body weight of the animals: significantly decrease
[4]
  glucose tolerance in the obese animals: significantly improve the glucose tolerance
[5]
  bioavailability: 86%
[6]
  Heart: 26%
  Kidney: 9%
  Liver: 36%
  Lung: 16%
  Spleen: 13%

— US8822519B2, “Compound with agitation effect on peroxisome proliferator-activated receptor process for its preparation and use thereof” (Zhejiang Hisun Pharmaceutical Co., Ltd., priority 2008, dated 2014)
